Data on one compound can be found in US20260041653A1, “AN HDAC INHIBITOR FOR TREATING CANCER WITH A MODIFIED STK11 ACTIVITY OR EXPRESSION” (Tango Therapeutics, Inc., priority 2022, published 2026).

One data set is described as follows: logD7.4. The class given is physicochemical. Particulars: pH 7.4.
Data set [1] can be described thus: Pharmacokinetics in cynomolgus monkeys. The class given is in vivo. Particulars: cynomolgus monkey, plasma. As to the method: The PK of Compound I in male cynomolgus monkeys was determined in plasma following single IV bolus and PO administration to non-naïve male cynomolgus s monkeys The vehicle used for IV was 20% wt/vol HPβCD, 1% vol/vol DMSO in saline and for PO was in 0.5% MC (suspension). Plasma samples were collected from 3 animals/group at 0.083, 0.25, 0.5, 1, 3, 6, 9, 12, 24, and 48 hours after dosing.

Another data set has as its target CYP2B6 (Homo sapiens, UniProt P20813). As to the kind of experiment: Metabolism by recombinant human CYP2B6. The class given is in vitro ADME. Particulars: read-out: terminal half life (T1/2), rh CYP2B6. On the procedure: Drug metabolizing enzymes involved in the biotransformation of Compound I were investigated using human liver microsomes (HLM) and recombinant enzymes. Compound I was stable in HLMs (>93% remaining after 240 minutes of incubation with HLM protein concentration at 0.6 mg/ml). CYP selective inhibitor experiments were not performed due to lack of appreciable Compound I turnover.

Data set [2] can be described thus: Tolerated and efficacious dose ranges in vivo. As to the method:
Briefly, a colony forming unit assay was performed in vitro to evaluate the impact of HDAC inhibitors on the viability of erythroid and myeloid cells. Cells were treated with a dose response of each compound for 14 days. Cell colonies were quantified at the end of the experiment and compared to a solvent control. The efficacious dose range of Compound I was also plotted (the range was between 3 mg/kg and 75 mg/kg) (FIG. 12A). The IC50s for each compound were calculated from the erythroid and myeloid colony formation unit assay. These IC50s were normalized to the compound's potency against HDAC1 in the cellular NanoBRET assay to allow for head-to-head compound comparison (Table 4-1).
Compound I concentrations to HDAC1 or HDAC3 inhibition in vivo were plotted in FIG. 12D. Shaded boxes indicate tolerated and efficacious dose ranges of Compound I. Non-tolerated exposures were over 150 mg/kg.

The target in the next data set is T1, HDAC1 (Homo sapiens, UniProt Q13547).
T1 construct: expressed in transfected cells
T1 sequence (Q13547 whole entry): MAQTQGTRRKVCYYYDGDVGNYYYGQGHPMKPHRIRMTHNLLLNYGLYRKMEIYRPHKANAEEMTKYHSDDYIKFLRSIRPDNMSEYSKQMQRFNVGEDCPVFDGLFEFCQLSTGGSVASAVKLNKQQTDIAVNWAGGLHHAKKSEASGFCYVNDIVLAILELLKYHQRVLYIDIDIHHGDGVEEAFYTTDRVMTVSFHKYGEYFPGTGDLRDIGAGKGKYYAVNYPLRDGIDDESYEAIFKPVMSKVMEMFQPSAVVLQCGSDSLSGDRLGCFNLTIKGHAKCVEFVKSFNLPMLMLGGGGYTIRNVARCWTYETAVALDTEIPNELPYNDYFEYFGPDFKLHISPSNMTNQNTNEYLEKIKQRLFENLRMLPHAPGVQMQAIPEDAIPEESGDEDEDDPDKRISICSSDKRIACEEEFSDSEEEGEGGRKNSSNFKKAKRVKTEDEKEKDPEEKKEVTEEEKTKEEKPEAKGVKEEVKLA
Nature of the data set: Cellular NanoBRET target engagement assay, HDAC1. The class given is cell-based. Conditions: in intact cells. (Bioluminescence resonance energy transfer reports proximity on the nanometre scale.)

The subject of another data set is STK11-null 3LL tumor. Nature of the data set: Anti-tumor efficacy in PD-1 resistant STK11-null 3LL model. Particulars: Compound I 75 mg/kg, Anti-PD1 10 mg/kg. The class given is in vivo. On the procedure: An in vivo anti-tumor efficacy of double combination treatment of Anti-PD1 and Compound I in a PD-1 resistant STK11-null 3LL model was performed. The parental (non STK11KO) 3LL line is relatively resistant to anti-PD1 treatment.
The animals (8/group) were divided into 4 groups: Group I was treated with a control antibody Anti-IgG2, group 2 was treated with anti-PD1 antibody, group 3 was treated with Compound I 75 mg/kg, and group 4 was treated with Compound 1 75 mg/kg and anti-PD1 antibody. Tumor volume and survival was monitored over the course of treatment. The tumor volume and survival was plotted by treatment group (FIG. 17A and FIG. 17B, respectively). The combination treatment with Compound I decreased the PD-1 resistance of this model caused by the SKT11 knockout to the baseline characteristic of the parental line as shown by Group 4's decreased tumor volume and increased survival over time compared to the other groups.

The next data set concerns the target T2, HDAC6 (Homo sapiens, UniProt Q9UBN7).
T2 construct: expressed in transfected cells
As to the kind of experiment: Cellular NanoBRET assay, HDAC6. The class given is cell-based.

The nature of data set [3]: Caverage in mice with STK11-deleted MC38 tumors. The class given is in vivo, mouse. Particulars: doses used in FIG. 12B and 12C.

CYP2B6, sequence (P20813 whole entry): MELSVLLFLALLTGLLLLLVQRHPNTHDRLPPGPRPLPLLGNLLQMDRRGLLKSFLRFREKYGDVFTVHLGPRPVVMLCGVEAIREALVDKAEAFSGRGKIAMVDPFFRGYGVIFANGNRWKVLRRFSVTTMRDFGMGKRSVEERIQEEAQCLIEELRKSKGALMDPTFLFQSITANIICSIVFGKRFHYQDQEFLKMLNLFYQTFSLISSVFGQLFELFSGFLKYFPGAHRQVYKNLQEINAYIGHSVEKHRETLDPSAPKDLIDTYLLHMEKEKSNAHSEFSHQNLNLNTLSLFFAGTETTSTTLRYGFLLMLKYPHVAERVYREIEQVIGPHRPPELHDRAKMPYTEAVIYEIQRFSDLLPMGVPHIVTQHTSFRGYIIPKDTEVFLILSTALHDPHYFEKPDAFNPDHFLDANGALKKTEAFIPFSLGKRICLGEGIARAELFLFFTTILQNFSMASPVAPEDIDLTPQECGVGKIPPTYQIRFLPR
T2 sequence (Q9UBN7 whole entry): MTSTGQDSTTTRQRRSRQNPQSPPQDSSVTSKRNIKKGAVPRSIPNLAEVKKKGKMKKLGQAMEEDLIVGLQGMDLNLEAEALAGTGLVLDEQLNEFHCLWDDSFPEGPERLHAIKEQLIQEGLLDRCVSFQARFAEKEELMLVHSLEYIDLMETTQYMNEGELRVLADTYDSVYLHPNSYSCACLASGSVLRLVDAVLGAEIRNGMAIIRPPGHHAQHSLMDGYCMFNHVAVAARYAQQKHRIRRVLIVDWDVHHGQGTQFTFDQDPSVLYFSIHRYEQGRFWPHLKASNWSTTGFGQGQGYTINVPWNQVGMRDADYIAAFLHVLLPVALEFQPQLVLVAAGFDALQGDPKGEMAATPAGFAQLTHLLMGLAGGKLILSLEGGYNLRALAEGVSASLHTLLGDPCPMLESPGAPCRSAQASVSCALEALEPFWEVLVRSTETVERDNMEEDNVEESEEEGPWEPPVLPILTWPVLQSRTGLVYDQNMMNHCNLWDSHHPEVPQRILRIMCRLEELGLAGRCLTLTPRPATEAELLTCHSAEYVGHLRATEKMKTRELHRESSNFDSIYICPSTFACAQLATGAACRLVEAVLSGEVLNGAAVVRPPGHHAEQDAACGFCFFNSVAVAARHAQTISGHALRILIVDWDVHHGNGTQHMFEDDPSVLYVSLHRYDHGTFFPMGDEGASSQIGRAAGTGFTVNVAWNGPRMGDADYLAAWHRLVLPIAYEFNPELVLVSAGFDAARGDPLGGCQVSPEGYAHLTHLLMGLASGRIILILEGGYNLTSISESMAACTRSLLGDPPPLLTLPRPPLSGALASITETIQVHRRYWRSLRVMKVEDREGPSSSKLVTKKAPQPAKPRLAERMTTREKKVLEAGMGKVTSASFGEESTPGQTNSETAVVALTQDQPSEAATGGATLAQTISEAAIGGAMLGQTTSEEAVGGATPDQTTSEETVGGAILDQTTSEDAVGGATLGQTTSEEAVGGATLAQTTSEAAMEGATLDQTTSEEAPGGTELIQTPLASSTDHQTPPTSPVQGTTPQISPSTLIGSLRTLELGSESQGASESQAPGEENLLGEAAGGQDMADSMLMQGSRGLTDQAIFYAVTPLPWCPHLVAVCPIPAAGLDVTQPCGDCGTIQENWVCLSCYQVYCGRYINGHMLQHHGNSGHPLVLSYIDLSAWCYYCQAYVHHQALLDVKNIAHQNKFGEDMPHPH

Compound `C[S@@](=N)(=O)c1ccc(C(=O)Nc2cc(-c3ccc(F)cc3)ccc2N)cc1` [Compound I, (R)—N-(4-amino-4′-fluoro-[1,1′-biphenyl]-3-yl)-4-(S-methylsulfonimidoyl)benzamide] yielded a logD7.4 in the data set “logD7.4” of 1.9. Moreover, the bioavailability (usually dose-corrected exposure relative to a reference, in per cent) in data set [1] (po, male cynomolgus monkeys, suspension at 3 mg/kg, fed, read-out: PO bioavailability (% F)) was 83%. The half-life in data set [1] (male) was 6.8 h. Also, the clearance in data set [1] (male, intravenous, read-out: CL, p) was determined as 9.4 mL/min/kg. Besides, the half-life on CYP2B6 is more than 1 h. Moreover, the Non-tolerated exposures entry in data set [2] is “over 150 mg/kg”. Moreover, the “selectivity for HDAC1 compared to HDAC3” value on HDAC1 was more than 10 fold. The “Median TTE” value in the data set with STK11-null 3LL tumor stood at 18 days. Further, on HDAC6, the IC50 (in general, the midpoint of a concentration-inhibition curve) is more than 30 µM. In data set [3], the “Cavg, u” value worked out at 192 nM and the “Fold of HDAC1 IC50 (Caverage coverage)” value is reported as 3.5 fold.
